According to patent US11957931B2, “Compositions and methods for treating vitiligo” (YALE UNIVERSITY, priority 2017, dated 2024):
Where two headings read alike, the source gives them in different places. Marks after values point to notes of the source that are not given here.

Key:
patients with vitiligo [1] = test: Retrospective case series of vitiligo patients treated with tofacitinib: BSA of depigmentation / repigmentation; type: in vivo, human; parameters: key to Responder Status: R, responder; NR, non-responder
From the text: (§3) This study is a retrospective case series of 10 patients seen between July 2014 and January 2017. […] Clinical and demographic information, including biological sex, age, disease duration and course, medical history, family history, and prior treatments were collected. Before initiating tofacitinib, all patients underwent baseline laboratory evaluation including comprehensive metabolic panel, complete blood cell count with differential, fasting lipid panel, QuantiFERON-TB Gold® ([…] Limited, Melbourne, Australia), and screening for HIV and hepatitis B and C. Body surface area (BSA) of depigmentation was assessed prior to and at the end of treatment. Serial laboratory monitoring, physical exams, and review of systems were used to monitor for adverse events.

patients with vitiligo [2] = test: Adverse event monitoring in the case series (laboratory monitoring, physical exams, review of systems); type: in vivo, human
From the text: as §3

CD8^+ T cells = test: Suction blister sampling, flow cytometry of CD8+ T cells in blister fluid; type: in vivo, human; settings: Patient 1; after 10 months of tofacitinib vs baseline; responding, non-responding and non-lesional sites
Protocol: The Negative Pressure Instrument Model NP-4 (Electronic Diversities®, Finksburg, MD) was used to induce suction blisters (1 cm in diameter). Blisters formed at a pressure between 10-15 mm Hg negative pressure and at a constant temperature of 40° C. Once blisters formed, the blister fluid was aspirated 135 through the roof using a 1 mL insulin syringe. Cells in the blister fluid were pelleted at 330×g for 10 minutes and prepared for flow cytometry. […] Cells were blocked with Human TruStain and incubated with an antibody cocktail for 30 minutes at 4° C. Anti-human CD45 (2D1) and CD8 (SK1) were used at 1:20 dilution. Anti-human CD3 (OKT3) was used at 1:200 dilution (BioLegend) and Fixable Viability Dye eFluor 455UV at 1:1000 (Ebioscience).

CXCL9 = CXCL9 ELISA of blister fluid and serum; type: in vivo, human; settings: Patient 1; following treatment
Protocol: (§1) The Negative Pressure Instrument Model NP-4 (Electronic Diversities®, Finksburg, MD) was used to induce suction blisters (1 cm in diameter). Blisters formed at a pressure between […] negative pressure and at a constant temperature of 40° C. Once blisters formed, the blister fluid was aspirated […] through the roof using a 1 mL insulin syringe. Cells in the blister fluid were pelleted at 330×g for 10 minutes and prepared for flow cytometry. The supernatant of the blister fluid was stored at −80° C. until analysis by enzyme-linked immunosorbent-assays (ELISA) for chemokines. None of the blisters were hemorrhagic.
(§2) Chemokines were assayed using the Human CXLC9/MIG DuoSet ELISA (DY392) and Human CXCL10/IP-10 DuoSet ELISA (DY266, R&D Systems) per the manufacturer's instructions. Optical densities were measured using a Perkin Elmer EnVision 2102® multilabel reader and analyzed using a 4 parameter […] standard curve.

CXCL10 = CXCL10 ELISA of blister fluid and serum; type: in vivo, human; settings: Patient 1; following treatment
Protocol: as §1, §2

[3] = system: melanocyte-specific T cells (HLA pentamer positive); settings: Patient 1; after treatment vs baseline
Protocol: Cells were blocked with Human TruStain and incubated with an antibody cocktail for 30 minutes at 4° C. Anti-human CD45 (2D1) and CD8 (SK1) were used at 1:20 dilution. Anti-human CD3 (OKT3) was used at 1:200 dilution (BioLegend) and Fixable Viability Dye eFluor 455UV at 1:1000 (Ebioscience).

patients with vitiligo [4] = system: patients with vitiligo
[5] = Patient 1, earlier course, 5 mg daily, over 5 months
[6] = Patient 2, 5 mg twice daily, after 8 months
[7] = Patient 3, 5 mg twice daily plus nbUVB 150 mJ every other day, after 11 months
[8] = Patient 4, after 14 months of therapy
[9] = Case 1, 5 mg twice daily plus full-body narrowband UV-B (400-500 mJ) twice weekly, after 3 months
[10] = Cases 1 and 2, at last follow-up

C[C@@H]1CCN(C(=O)CC#N)C[C@@H]1N(C)c1ncnc2[nH]ccc12 [tofacitinib, 3-((3R,4R)-4-methyl-3-(methyl(7H-pyrrolo[2,3-d]pyrimidin-4-yl)amino)piperidin-1-yl)-3-oxopropanenitrile]
Responder Status (patients with vitiligo [1]; Patient 1): R
repigmentation at other body sites, including the trunk (patients with vitiligo [1]; [5]): only minimal repigmentation
repigmentation of face, forearms and dorsal hands (patients with vitiligo [1]; [5]): near complete repigmentation
repigmentation on re-treatment (patients with vitiligo [1]; Patient 1, 5 mg daily over 6 months, started in late spring): repigmentation of the face, forearms and dorsal hands, and the upper back and shoulders, but not the lower back or other sun-protected body sites
BSA after to tofacitinib (patients with vitiligo [1]; Patient 1, BSA prior to tofacitinib 10%, treatment duration 10 months): 4%
course after stopping tofacitinib (patients with vitiligo [1]; Patient 1, tofacitinib stopped for 8 months, areas that had previously responded): depigmentation recurred
Responder Status (patients with vitiligo [1]; Patient 2): R
repigmentation of dorsal hands and lower legs (patients with vitiligo [1]; [6]): islands of repigmentation
repigmentation of face, neck (not submental area) and forearms (patients with vitiligo [1]; [6]): near-complete repigmentation
sun-protected body sites (patients with vitiligo [1]; [6]): remained unchanged
repigmentation of face, lateral and posterior neck, and forearms (patients with vitiligo [1]; Patient 2, 5 mg twice daily, over 3 months, sun exposure): partial repigmentation
BSA after to tofacitinib (patients with vitiligo [1]; Patient 2, BSA prior to tofacitinib 28%, treatment duration 8 months): 24%
maintenance of repigmentation (patients with vitiligo [1]; Patient 2, while taking tofacitinib during the winter, minimal sunlight exposure): Repigmentation was maintained
Responder Status (patients with vitiligo [1]; Patient 3): R
repigmentation of all other body sites (patients with vitiligo [1]; [7]): innumerable islands of repigmentation
repigmentation of the back (patients with vitiligo [1]; [7]): > 75%
repigmentation of the face (patients with vitiligo [1]; [7]): complete repigmentation
BSA after to tofacitinib (patients with vitiligo [1]; Patient 3, BSA prior to tofacitinib 39%, treatment duration 11 months, concomitant nbUVB): 24%
Responder Status (patients with vitiligo [1]; Patient 4): R
BSA after to tofacitinib (patients with vitiligo [1]; Patient 4, BSA prior to tofacitinib 10%, treatment duration 14 months): 8%
repigmentation of hands and sun-protected body sites (patients with vitiligo [1]; [8]): neither the hands nor sun-protected body sites, however, showed evidence of repigmentation
repigmentation of the face (patients with vitiligo [1]; [8]): near-complete repigmentation
Responder Status (patients with vitiligo [1]; Patient 5): R
response of vitiligo to tofacitinib alone (patients with vitiligo [1]; Patient 5, 5-10 mg twice daily for 1 year, before nbUVB, hands disguised with makeup): unresponsive
BSA after to tofacitinib (patients with vitiligo [1]; Patient 5, BSA prior to tofacitinib 2%, treatment duration 10 months, islands of repigmentation after 12 nbUVB treatments did not change BSA appreciably): 2%*
repigmentation after adding nbUVB hand phototherapy (patients with vitiligo [1]; Patient 5, concomitant nbUVB, approximately 12 treatments (most recent dose 350 mJ)): islands of repigmentation were apparent
Responder Status (patients with vitiligo [1]; Patient 6): NR
BSA after to tofacitinib (patients with vitiligo [1]; Patient 6, BSA prior to tofacitinib 7%, treatment duration 3 months): 7%
Responder Status (patients with vitiligo [1]; Patient 7): NR
BSA after to tofacitinib (patients with vitiligo [1]; Patient 7, BSA prior to tofacitinib 1%, treatment duration 9 months): 1%
Responder Status (patients with vitiligo [1]; Patient 8): NR
BSA after to tofacitinib (patients with vitiligo [1]; Patient 8, BSA prior to tofacitinib 4%, treatment duration 15 months): 4%
Responder Status (patients with vitiligo [1]; Patient 9): NR
BSA after to tofacitinib (patients with vitiligo [1]; Patient 9, BSA prior to tofacitinib 6%, treatment duration 4 months): 6%
Responder Status (patients with vitiligo [1]; Patient 10): NR
BSA after to tofacitinib (patients with vitiligo [1]; Patient 10, BSA prior to tofacitinib 100%, treatment duration 11 months): 100%
mean decrease of BSA involvement with vitiligo (patients with vitiligo [1]; in 5/10 patients, tofacitinib 5-10 mg QD-BID, average 9.5 months): 5.4 % BSA
overall finding: repigmentation and light exposure (patients with vitiligo [1]; sunlight or nbUVB phototherapy): only led to repigmentation when there was concomitant light exposure
repigmentation (patients with vitiligo [1]; the other 5 of 10 patients, tofacitinib 5-10 mg QD-BID): did not achieve any repigmentation
serious adverse events (patients with vitiligo [2]; 10 patients): no serious adverse events
adverse events overall (patients with vitiligo [2]; in vivo): mild and infrequent
arthralgias (patients with vitiligo [2]; of 10 patients): one patient reported arthralgias
mild elevations of lipids (patients with vitiligo [2]; of 10 patients): 4 patients
upper respiratory infection (most common side effect) (patients with vitiligo [2]; of 10 patients): 2 patients
weight gain (patients with vitiligo [2]; reported by one patient of 10): 5 pounds
CD8+ T cell number in blister fluid (CD8^+ T cells): absolute numbers in each site were reduced
CXCL9 level in blister fluid (CXCL9): undetectable
CXCL9 level in serum (CXCL9): undetectable
CXCL10 level in blister fluid (CXCL10): undetectable
CXCL10 level in serum (CXCL10): undetectable
percentage of melanocyte-specific T cells (HLA pentamer positive) in PBMCs [3]: did not change with tofacitinib treatment, and even increased slightly
repigmentation of neck, chest, forearms and shins (patients with vitiligo [4]; [9]): ≥ 75%
repigmentation of the dorsal hands (patients with vitiligo [4]; [9]): only minimal freckling
repigmentation of the face (patients with vitiligo [4]; [9]): nearly complete repigmentation
repigmentation of the face (patients with vitiligo [4]; Case 2, 5 mg twice daily plus narrowband UV-B (360-500 mJ) 2 to 3 times weekly to only the face, after 3 months): about 50%
facial repigmentation (patients with vitiligo [4]; Case 2, 5 mg twice daily plus narrowband UV-B (360-500 mJ) 2 to 3 times weekly to only the face, after 6 months): about 75%
repigmentation at the other body sites (no UV-B) (patients with vitiligo [4]; Case 2, 5 mg twice daily, narrowband UV-B to only the face): No repigmentation occurred
adverse effects (patients with vitiligo [4]; [10]): no adverse effects
complete blood cell count, liver function tests, serum creatinine, fasting lipids (patients with vitiligo [4]; [10]): no abnormalities
